In patent EP3070175A1, “TEST FOR DETERMINING SUSCEPTIBILITY OR RESISTANCE TO POLYMYXINS IN ENTEROBACTERIACEAE” (Université de Fribourg, priority 2015, dated 2016):

Key:
[1] = system: P. mirabilis; assay: MIC determination, broth microdilution in Cation-Adjusted Mueller-Hinton broth (CLSI); type: cell-based, Proteus mirabilis; settings: strain Pmir
Experimental: (§1) Determination of MIC values were performed using the reference technique (broth microdilution in Cation-Adjusted Mueller-Hinton broth) according to the CLSI guidelines. Polymyxin B and colistin (Sigma-Aldrich, Saint-Louis) were tested over a range dilution from 0.12 to 128 µg/ml and 5.10^5 CFU/ml of bacteria in each well was used. Following the EUCAST breakpoints (http://www.eucast.org/), strains with a colistin MICs of ≤ 2 µg/ml were categorized as susceptible, although those with MICs of > 2 µg/ml were resistant.
(§2) All experiments were repeated in triplicate.

[2] = system: K. oxytoca; assay: Polymyxin test: colorimetric detection of growth (glucose metabolization, phenol red) in presence of colistin sulphate; type: cell-based; parameters: key: +, yellow; -, orange; settings: strain C24; colistin sulphate 3.75 mg/L final; visual colour change, up to 4 h at 37°C
Experimental: (§3) Each inoculum was prepared by mixing 1 öse (10 µl) of a fresh culture of the tested bacteria in 5 ml of sterile NaCl 0.85% (at a density of 3 Mac Farland, i.e. about 10^9 CFU/ml).
(§4) 250 ml of reactive medium was prepared by mixing the compounds hereafter: • a broth powder of a non selective growth medium for bacteria, the Cation-Adjusted Mueller-Hinton broth (MHB-CA) : 6.25 g • a colour indicator, the phenol red : 0.0125 g • sterile distilled water 225 ml • sterile D (+)-glucose (10 %) anhydrous (sterilization by filtration) : 25 ml
(§5) The pH of the final reactive medium was adjusted to 6.6 and 6.7 with HCl 1M.
(§6) Colistin or polymyxin B was added or not at the concentration of 5 mg/L in the reactive medium. Standard colistin sulphate and polymyxin B were from Sigma Aldrich (Saint-Louis, France). Those antibiotic molecule powders were kept at 4°C before their use, whereas polymyxin dilutions were kept at -20°C.
(§7) For each strain, two wells of a plastic sterile plate with 96 shaped wells were inoculated in parallel with and without polymyxin (colistin sulphate or polymyxin B) in order to compare their colour change.
(§8) Plastic sterile plates were from Sarstedt (Nümbrecht, Germany). The tray may be prepared as follows : • 1. 150 µl of reactive medium colistin free (obtained in 1.) in the first line • 2. 150 µl of reactive medium with 5 mg/l of colistin sulphate in the second line (final concentration = 3.75 mg/l) • 3. 50 µl of NaCl alone in the first column (one well colistin-free and one well with colistin sulphate) (medium control) • 4. 50 µl of the bacterial suspension (obtained in 2.) for the control strains and for every strain in the other column (one well colistin-free and one well with colistin)
(§9) After mixing of the bacterial suspension to the reactive medium by pipetting up and down, the final concentration of bacteria was 2.5.10^8 CFU/ml in each well and the final selective concentration of colistin or polymyxin B in the well with polymyxin was 3.75 mg/L.
(§10) The results of the tests were recorded at 10 min (checking for no spontaneous colour change in the well) and then every hour for a maximum of 4 hours by visual inspection. No colour change of the well with colistin sulphate or polymyxin B indicated susceptibility to colistin sulphate or polymyxin B and negativity of those tests. On the contrary, a colour change (orange to yellow) indicates the positivity of the test meaning growth capability (related to glucose metabolism) in presence of colistin sulphate or polymyxin B, i.e. resistance to colistin sulphate or polymyxin B.
as §2

[3] = system: C. freundii; assay: as above; type: cell-based; parameters: key: +, yellow; -, orange; settings: colistin sulphate 3.75 mg/L final, visual colour change, up to 4 h at 37°C
Experimental: as §3, §4, §5, §6, §7, §8, §9, §10, §2

[4] = system: P. stuartii; assay: as above; type: cell-based; parameters: key: +, yellow; -, orange; settings: strain Pstu; colistin sulphate 3.75 mg/L final; visual colour change, up to 4 h at 37°C
Experimental: as §3, §4, §5, §6, §7, §8, §9, §10, §2

[5] = system: H. alvei; assay: as above; type: cell-based; parameters: key: +, yellow; -, orange; settings: strain ER; colistin sulphate 3.75 mg/L final; visual colour change, up to 4 h at 37°C
Experimental: as §3, §4, §5, §6, §7, §8, §9, §10, §2

[6] = system: E. aerogenes; assay: as above; type: cell-based; parameters: key: +, yellow; -, orange; settings: strain 6 FR; colistin sulphate 3.75 mg/L final; visual colour change, up to 4 h at 37°C
Experimental: as §3, §4, §5, §6, §7, §8, §9, §10, §2

[7] = system: M. morganii; assay: as above; type: cell-based; parameters: key: +, yellow; -, orange; settings: strain Mmor; colistin sulphate 3.75 mg/L final; visual colour change, up to 4 h at 37°C
Experimental: as §3, §4, §5, §6, §7, §8, §9, §10, §2

[8] = system: E. cloacae; assay: as above; type: cell-based; parameters: key: +, yellow; -, orange; settings: colistin sulphate 3.75 mg/L final, visual colour change, up to 4 h at 37°C
Experimental: as §3, §4, §5, §6, §7, §8, §9, §10, §2

[9] = system: K. pneumoniae; assay: MIC determination, broth microdilution in Cation-Adjusted Mueller-Hinton broth (CLSI); type: cell-based, Klebsiella pneumoniae; settings: for Colistin resistance: EUCAST breakpoints
Experimental: as §1, §2

[10] = system: S. marcescens; assay: Polymyxin test: colorimetric detection of growth (glucose metabolization, phenol red) in presence of colistin sulphate; type: cell-based, Serratia marcescens; parameters: key: +, yellow; -, orange; settings: strain Smar; colistin sulphate 3.75 mg/L final; visual colour change, up to 4 h at 37°C
Experimental: as §3, §4, §5, §6, §7
Plastic sterile plates were from Sarstedt (Nümbrecht, Germany). The tray may be prepared as follows : • 1. […]
The results of the tests were recorded at 10 min (checking for no spontaneous colour change in the well) and then every hour for a maximum of 4 hours by visual inspection. […]

[11] = system: E. coli; assay: as above; type: cell-based, Escherichia coli; parameters: key: +, yellow; -, orange; settings: colistin sulphate 3.75 mg/L final, visual colour change, up to 4 h at 37°C
Experimental: as §3, §4, §5, §6, §7, §8, §9, §10, §2

colistin sulphate
Colistin resistance ([1]; EUCAST breakpoints): + (those with MICs of > 2 µg/ml were resistant)
Colistin MIC ([1]; Natural resistance): >128 µg/mL
Results of the method of the invention [2]: +
Results of the method of the invention ([3]; strain 8 FR): -
Results of the method of the invention ([3]; strain C136): -
Results of the method of the invention [4]: +
Results of the method of the invention [5]: +
Results of the method of the invention [6]: -
Results of the method of the invention [7]: +
Results of the method of the invention ([8]; strain 7 FR): -
Results of the method of the invention ([8]; strain C28): +
Results of the method of the invention ([8]; strain C129): -
Results of the method of the invention ([8]; strain C144): -
Results of the method of the invention ([8]; strain HM): +
Colistin MIC ([9]; strain 1 FR): 0.12 µg/mL
Colistin resistance ([9]; strain 1 FR): - (strains with a colistin MICs of ≤ 2 µg/ml were categorized as susceptible)
Colistin MIC ([9]; strain 2 FR): 0.12 µg/mL
Colistin resistance ([9]; strain 2 FR): - (strains with a colistin MICs of ≤ 2 µg/ml were categorized as susceptible)
Colistin MIC ([9]; strain 4 FR): 0.25 µg/mL
Colistin resistance ([9]; strain 4 FR): - (strains with a colistin MICs of ≤ 2 µg/ml were categorized as susceptible)
Colistin MIC ([9]; strain 9 FR): 0.5 µg/mL
Colistin resistance ([9]; strain 9 FR): - (strains with a colistin MICs of ≤ 2 µg/ml were categorized as susceptible)
Colistin resistance ([9]; strain 11 FR): + (those with MICs of > 2 µg/ml were resistant)
Colistin MIC ([9]; strain 11 FR, resistance mechanism Unknown): 32 µg/mL
Colistin resistance ([9]; strain 75b): + (those with MICs of > 2 µg/ml were resistant)
Colistin MIC ([9]; strain 75b, PhoP D191Y): 128 µg/mL
Colistin resistance ([9]; strain AF1b): + (those with MICs of > 2 µg/ml were resistant)
Colistin MIC ([9]; strain AF1b, PmrB T157P): 16 µg/mL
Colistin resistance ([9]; strain C23): + (those with MICs of > 2 µg/ml were resistant)
Colistin MIC ([9]; strain C23, ΔmgrB): 128 µg/mL
Colistin resistance ([9]; strain C25): + (those with MICs of > 2 µg/ml were resistant)
Colistin MIC ([9]; strain C25, PmrA G53C): 64 µg/mL
Colistin resistance ([9]; strain C26): + (those with MICs of > 2 µg/ml were resistant)
Colistin MIC ([9]; strain C26, mgrB gene truncated with IS): 128 µg/mL
Colistin resistance ([9]; strain C27): + (those with MICs of > 2 µg/ml were resistant)
Colistin MIC ([9]; strain C27, mgrB Δnt23/33 (frameshift)): >128 µg/mL
Colistin MIC ([9]; strain C112): 0.12 µg/mL
Colistin resistance ([9]; strain C112): - (strains with a colistin MICs of ≤ 2 µg/ml were categorized as susceptible)
Colistin MIC ([9]; strain C115): 0.12 µg/mL
Colistin resistance ([9]; strain C115): - (strains with a colistin MICs of ≤ 2 µg/ml were categorized as susceptible)
Colistin MIC ([9]; strain C130): 0.12 µg/mL
Colistin resistance ([9]; strain C130): - (strains with a colistin MICs of ≤ 2 µg/ml were categorized as susceptible)
Colistin MIC ([9]; strain C132): 0.12 µg/mL
Colistin resistance ([9]; strain C132): - (strains with a colistin MICs of ≤ 2 µg/ml were categorized as susceptible)
Colistin resistance ([9]; strain T1b): + (those with MICs of > 2 µg/ml were resistant)
Colistin MIC ([9]; strain T1b, mgrB gene truncated with IS5-like): 128 µg/mL
Results of the method of the invention [10]: +
Results of the method of the invention ([11]; strain 3 FR): -
Results of the method of the invention ([11]; strain 5 FR): -
Results of the method of the invention ([11]; strain 10 FR): -
Results of the method of the invention ([11]; strain 27563): +
Results of the method of the invention ([11]; strain 27837): +
Results of the method of the invention ([11]; strain 27850): +
Results of the method of the invention ([11]; strain 27852): +
Results of the method of the invention ([11]; strain 30742): +
Results of the method of the invention ([11]; strain ATCC 25922): -
Results of the method of the invention ([11]; strain C140): -
Results of the method of the invention ([11]; strain Top10): -
